The values that follow come from PMC8419835.

This data set is described as follows: Head-to-tail amide by intramolecular native chemical ligation: N,S-acyl shift of a C-terminal N-2-[thioethyl]glycine residue on TentaGel, transthioesterification with 50 equiv external thiol (MESNa or MPAA), then attack by N-terminal Cys and S,N-acyl shift, one pot. The conditions noted are these: the molecule shown is the open-chain precursor, aqueous: procedure B citrate pH 3 then phosphate pH 7.4 (DTT), procedure C 1 M TEAB pH 7.0 (MPAA, DTT), resin, 48.0 h, 2 steps.

On to `C[C@H](NC(=O)[C@H](CCCCN)NC(=O)[C@@H]1CCCN1C(=O)[C@@H](N)CS)C(=O)SCCS(=O)(=O)O`, for which the ring closure, yield over several steps (12-membered ring) came to 24.1%.
For the compound “H-Cys-Arg-Cys-Leu-Cys-Arg-Arg-Gly-Val-Cys-Arg-Cys-Ile-Cys-Thr-Arg-Gly-Phe-[N-2-(thioethyl)Gly]-linker-TentaGel (linker Ala-Ala-Met or bAla-Ala-bAla-Met, text inconsistent; side chains unprotected, all Cys as free SH; via MPAA thioester)”, under “54-membered ring”, the ring closure, yield over several steps amounted to 39%.
On to `C[C@H](NC(=O)[C@H](CCCCN)NC(=O)[C@@H]1CCCN1C(=O)CNC(=O)[C@H](Cc1ccccc1)NC(=O)[C@@H](N)CS)C(=O)SCCS(=O)(=O)O`, for which the ring closure, yield over several steps (18-membered ring) is 25.8%.
Consider `C[C@@H](O)[C@H](NC(=O)[C@H](Cc1ccccc1)NC(=O)[C@@H]1CCCN1C(=O)[C@H](CC(N)=O)NC(=O)[C@@H]1CCCN1C(=O)[C@H](Cc1ccccc1)NC(=O)[C@@H](N)CS)C(=O)Sc1ccc(CC(=O)O)cc1`, for which the ring closure, yield over several steps (21-membered ring) was found to be 55%.
For “H-Cys-Thr-Lys-Ser-Ile-Pro-Pro-Ile-Cys-Phe-Pro-Asp-Gly-Arg-[N-2-(thioethyl)Gly]-linker-TentaGel (linker Ala-Ala-Met or bAla-Ala-bAla-Met, text inconsistent; side chains unprotected, both Cys as free SH; via MPAA thioester)”, the ring closure, yield over several steps (42-membered ring) stood at 40%.
